Where a SMILES comes first, the peptide text is derived from it. [ ]: non-standard residue; d: D form.
Experiments:
Aβ40 = target: T1, Aβ40 (Homo sapiens, UniProt P05067); assay: Inhibition of Aβ40 fibrillization (CD spectra, TEM); format: biochemical; conditions: for Aβ40 fibril formation in the presence of peptide at 1:1 ratio (kinetics of CD spectra): authors' reply in review file
T1 construct: made in house; host or cells: chemical solid-phase peptide synthesis (Fmoc-polyamide), no expression host
T1 sequence (P05067 672-711): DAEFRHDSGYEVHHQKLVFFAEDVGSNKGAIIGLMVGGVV
Procedure: (§1) The 1.4 mM stock solution of each peptide in 75% trifluoroethanol was diluted to a final concentration of 30 μM in 20 mM sodium phosphate buffer with 150 mM KCl (PBS, pH 7). Each was incubated at 25°C for designated time points and placed in a 1‐mm cell to record the CD spectra between 200 and 250 nm on a J‐715 CD spectrometer (JASCO, Japan). The band width was set to 2 nm, and the step resolution was 0.05 nm. Each sample was scanned twice and the average of these two measurements was smoothed by the Savitzky–Golay method to get the final CD spectrum.
(§2) The samples were deposited on carbon‐coated 300‐mesh copper grids, incubated for 3 min for absorption, and then washed by water. Negative staining was carried out by staining with 2% uranyl acetate for 1.5 min. After air drying, the samples were viewed using a Hitachi H‐7000 electron microscope (Hitachi, Japan).
Appendix Figure S2. Effect of the designed bipartite peptides on inhibition of A β 40 fibrillization. The peptides were dissolved in 20 mM sodium phosphate buffer with 150 mM KCl and incubated at 25 °C. Peptide concentration is 30 µM for each peptide. The CD spect ra of A β 40 (A), the Aβ 40/R 8-Aβ (25-35) mixture (1:1) (B), and the Aβ 40/DR8-Aβ (25-35) mixture (1:1) (C) were recorded at the indicated incubation times shown in (A). The spectrum change is pointed out by an arrow in (A), indicating the formation of cross-β structure in the am yloid fibrils. (D) The time course of am yloido gen es is of Aβ 40 with and without the designed peptide inhibitors .
The CD spectra were not smoothed. (A) is the same as Fi g. S1A.
(§3) (1 picture or pasted object on this page, not shown here)

Neuro2a cells = assay: Cell viability by MTT assay, peptide alone; format: cell-based, mouse; conditions: 30 μM peptide, MTT 48 h later, N = 6
Procedure: (§4) Data information: Peptide concentration is 30 μM for each peptide. Standard deviations of the mean are shown as bars for each sample (N = 6 for pure peptide and N = 12 for mixture). The statistics were done by Student's t‐test. Mouse N2a neuroblastoma cells (ATCC) were cultured in Dulbecco's modified Eagle's medium (DMEM) (HyClone, USA) supplemented with 10% fetal bovine serum (HyClone, USA). Cells were harvested with DMEM and suspended at a density of 3.5 × 10^5 cells/ml. 100 μl from each sample was plated in one well of a 96‐well CellBIND microplate (Corning, USA) and then incubated at 37°C under 5% CO2 for 24 h. Five microliters from each stock peptide (6 mM) in DMSO was diluted with 95 μl of PBS (pH 7.0) and then 900 μl of DMEM to a final concentration of 30 μM.

[1] = tested on: Aβ40 toxicity to Neuro2a cells; assay: Attenuation of Aβ40 cytotoxicity, MTT assay; format: cell-based, mouse; conditions: Aβ40 30 μM premixed with 30 μM peptide for 24 h at room temperature; Aβ40 alone 30%; MTT 48 h later, N = 12
Procedure: as §4

[2] = CD spectra and TEM of the single peptides (conformation, self-aggregation); format: physicochemical; conditions: 30 μM peptide in 20 mM sodium phosphate buffer with 150 mM KCl (pH 7), 25°C; for amyloid fibril formation (TEM): incubation for 168 h; for conformation by CD spectra: spectra largely unchanged with incubation time
Procedure: The circular dichroism (CD) spectra were recorded at various time points as indicated. […] The CD spectra of both peptides remained largely unchanged with the incubation time.
as §1, §2
DR8-Aβ (25-35). The peptides were dissolved in 20 mM sodium phosphate b u ff e r with 150 mM KCl and incubated at 25 °C. Pept ide concentration is 30 µ M. (A-C) The CD spectra were recorded at the indicated incubation time shown in (A).(D -F) […]
formed nucleus ver y fast and β -sheet signal (negative ellipticity at 218 nm) can be seen in the beginning of i ncubation. The CD spectra were not smoothed.
as §3

Compound | Aβ40 fibril formation in the presence of peptide at 1:1 ratio (kinetics of CD spectra) (Aβ40) | inhibition effect on Aβ40 fibrillization at the lowest ratio (Aβ40; Aβ40 30 μM : peptide 1:0.1) | effect on formation of Aβ40 amyloid fibrils (CD 218 nm, TEM) (Aβ40; Aβ40 30 μM mixed with peptide at 1:0.1, 1:0.2 or 1:1 molar ratio, pH 7, 25°C) | toxicity to the N2a cells (Neuro2a cells) | cell viability with Aβ40 plus equal molar peptide [1] | amyloid fibril formation (TEM) [2] | conformation by CD spectra [2] | inhibition effect on Aβ40 fibrillization, 1:1 mixture (Aβ40; Aβ40 30 μM and peptide 30 μM (1:1), pH 7, 25°C, CD)
Ac-RRRRRRRRGSNKGAIIGLM-NH2 [R8‐Aβ(25–35)] | failed to formed fibrils | observed even when its concentration was ten times lower than Aβ40 | significantly delayed or decreased the formation of Aβ40 amyloid fibrils | no detectable toxicity | 70–75% | did not form amyloid fibrils at all | random coil structure | –
CC[C@H](C)[C@H](NC(=O)[C@H](C)NC(=O)CNC(=O)[C@H](CCCCN)NC(=O)[C@H](CC(N)=O)NC(=O)[C@H](CO)NC(=O)CNC(=O)[C@@H](CCCNC(=N)N)NC(=O)[C@@H](CCCNC(=N)N)NC(=O)[C@@H](CCCNC(=N)N)NC(=O)[C@@H](CCCNC(=N)N)NC(=O)[C@@H](CCCNC(=N)N)NC(=O)[C@@H](CCCNC(=N)N)NC(=O)[C@@H](CCCNC(=N)N)NC(=O)[C@@H](CCCNC(=N)N)NC(C)=O)C(=O)N[C@H](C(=O)NCC(=O)N[C@@H](CC(C)C)C(=O)N[C@@H](CCSC)C(N)=O)[C@@H](C)CC [^DR8‐Aβ(25–35)] (Ac-[dR][dR][dR][dR][dR][dR][dR][dR]GSNKGAIIGLM-NH2) | failed to formed fibrils | – | – | no detectable toxicity | 70–75% | did not form amyloid fibrils at all | random coil structure | inhibition effect was also observed

Source: article PMC5412883, “An intranasally delivered peptide drug ameliorates cognitive decline in Alzheimer transgenic mice” (EMBO Molecular Medicine, 2017)
